In patent publication US20230192705A1, “SHP2 INHIBITORS, COMPOSITIONS AND USES THEREOF” (Betta Pharmaceuticals Co., Ltd, priority 2020, published 2023) one finds IC50 data, which are given here for 22 molecules.

For the test, the target named is T1, SHP2 (Homo sapiens, UniProt Q06124).
T1 sequence (Q06124 1-593): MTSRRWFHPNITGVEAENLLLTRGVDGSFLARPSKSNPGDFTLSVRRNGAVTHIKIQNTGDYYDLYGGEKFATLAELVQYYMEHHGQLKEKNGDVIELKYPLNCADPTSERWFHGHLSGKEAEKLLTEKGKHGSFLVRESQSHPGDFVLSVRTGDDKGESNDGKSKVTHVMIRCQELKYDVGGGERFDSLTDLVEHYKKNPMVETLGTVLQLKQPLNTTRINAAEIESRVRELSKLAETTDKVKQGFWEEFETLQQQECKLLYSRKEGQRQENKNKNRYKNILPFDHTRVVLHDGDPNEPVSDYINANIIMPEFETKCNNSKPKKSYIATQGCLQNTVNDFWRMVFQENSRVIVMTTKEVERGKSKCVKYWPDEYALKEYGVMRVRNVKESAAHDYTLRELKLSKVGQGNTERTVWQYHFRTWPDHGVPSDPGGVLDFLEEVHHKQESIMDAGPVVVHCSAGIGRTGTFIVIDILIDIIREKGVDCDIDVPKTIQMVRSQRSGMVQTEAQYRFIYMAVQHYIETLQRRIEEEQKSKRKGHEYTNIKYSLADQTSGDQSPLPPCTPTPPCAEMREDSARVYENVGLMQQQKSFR
The test can be described thus: SHP2 allosteric inhibitor enzyme activity assay (DiFMUP fluorescence). Type of test: biochemical. To be noted: class symbols. In outline:
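SHP2 activated by 0.5 μM IRS1_pY1172(dPEG8)pY1222 peptide, 0.2 ng enzyme per well, 1 h at room temperature with compound (1 μM top, 3-fold series), then DiFMUP substrate 1 h. Buffer: 60 mM HEPES, 75 mM NaCl, 75 mM KCl, 0.05% BRIJ-35, 1 mM EDTA, 5 mM DTT. Fluorescence ex 340/em 450 nm; IC50 by variable-slope fit.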

As to `CNc1ncc2c(n1)CC(C)(C)C=C2c1n[nH]c2nc(N3CCC4(CC3)Cc3ccccc3[C@H]4N)[nH]c(=O)c12` [Example 149, (S)-6-(1-amino-1,3-dihydrospiro[indene-2,4′-piperidin]-1′-yl)-3-(7,7-dimethyl-2-(methylamino)-7,8-dihydroquinazolin-5-yl)-1,5-dihydro-4H-pyrazolo[3,4-d]pyrimidin-4-one], the concentration for half-maximal inhibition (IC50) is not above 20 nM.
Then `Cn1c2c(c3ccccc31)C(c1n[nH]c3nc(N4CCC5(CC4)Cc4ccccc4[C@H]5N)[nH]c(=O)c13)=CCC2` [Example 113, (S)-6-(1-amino-1,3-dihydrospiro[indene-2,4′-piperidin]-1′-yl)-3-(9-methyl-2,9-dihydro-1H-carbazol-4-yl)-1,5-dihydro-4H-pyrazolo[3,4-d]pyrimidin-4-one], with not above 20 nM; and `N[C@@H]1c2ccccc2CC12CCN(c1nc3[nH]nc(C4(c5ccnc(NC6CCC6)c5Cl)CC4)c3c(=O)[nH]1)CC2` [Example 67, (S)-6-(1-amino-1,3-dihydrospiro[indene-2,4′-piperidin]-1′-yl)-3-(1-(3-chloro-2-(cyclobutylamino)pyridin-4-yl)cyclopropyl)-1,5-dihydro-4H-pyrazolo[3,4-d]pyrimidin-4-one], with not above 20 nM; and `N[C@@H]1c2ccccc2CC12CCN(c1nc3[nH]nc(C4(c5ccnc(CN6CCCC6)c5)CC4)c3c(=O)[nH]1)CC2` [Example 55, (S)-6-(1-amino-1,3-dihydrospiro[indene-2,4′-piperidin]-1′-yl)-3-(1-(2-(pyrrolidin-1-ylmethyl)pyridin-4-yl)cyclopropyl)-1,5-dihydro-4H-pyrazolo[3,4-d]pyrimidin-4-one], with 20 to 60 nM.
Then `C[C@@H]1OCC2(CCN(c3nc4[nH]nc(C5(c6nc7ccccc7o6)CC5)c4c(=O)[nH]3)CC2)[C@@H]1N` [Example 284, 6-((3S,4S)-4-amino-3-methyl-2-oxa-8-azaspiro[4.5]decan-8-yl)-3-(1-(benzo[d]oxazol-2-yl)cyclopropyl)-1,5-dihydro-4H-pyrazolo[3,4-d]pyrimidin-4-one], with 20 to 60 nM; and `C[C@@H]1OCC2(CCN(c3nc4[nH]nc(C5(c6cccc(Br)c6)CC5)c4c(=O)[nH]3)CC2)[C@@H]1N` [Example 317, 6-((3S,4S)-4-amino-3-methyl-2-oxa-8-azaspiro[4.5]decan-8-yl)-3-(1-(3-bromophenyl)cyclopropyl)-1,5-dihydro-4H-pyrazolo[3,4-d]pyrimidin-4-one], with 20 to 60 nM.
The same measure for `N[C@@H]1c2ccccc2CC12CCN(c1nc3[nH]nc(C4(c5ccnc(NC6CC6)c5)CC4)c3c(=O)[nH]1)CC2` [Example 29, (S)-6-(1-amino-1,3-dihydrospiro[indene-2,4′-piperidin]-1′-yl)-3-(1-(2-(cyclopropylamino)pyridin-4-yl)cyclopropyl)-1,5-dihydro-4H-pyrazolo[3,4-d]pyrimidin-4-one]: not above 20 nM.
For the molecule `N[C@@H]1c2ccccc2CC12CCN(c1nc3[nH]nc(C4(c5cccc(C6CC6)c5)CC4)c3c(=O)[nH]1)CC2` [Example 218, (S)-6-(1-amino-1,3-dihydrospiro[indene-2,4′-piperidin]-1′-yl)-3-(1-(3-cyclopropylphenyl)cyclopropyl)-1,5-dihydro-4H-pyrazolo[3,4-d]pyrimidin-4-one], the IC50 is not above 20 nM.
The same measure for `CC1(C)C=C(c2n[nH]c3nc(N4CCC5(CC4)Cc4ccccc4[C@H]5N)[nH]c(=O)c23)c2ccccc21` [Example 176, (S)-6-(1-amino-1,3-dihydrospiro[indene-2,4′-piperidin]-1′-yl)-3-(1,1-dimethyl-1H-inden-3-yl)-1,5-dihydro-4H-pyrazolo[3,4-d]pyrimidin-4-one]: not above 20 nM.
Then `N[C@@H]1c2ccccc2CC12CCN(c1nc3[nH]nc(C4(c5ccnnc5)CC4)c3c(=O)[nH]1)CC2` [Example 71, (S)-6-(1-amino-1,3-dihydrospiro[indene-2,4′-piperidin]-1′-yl)-3-(1-(pyridazin-4-yl)cyclopropyl)-1,5-dihydro-4H-pyrazolo[3,4-d]pyrimidin-4-one], with not above 20 nM.
Take `C[C@@H]1OCC2(CCN(c3ncc(C4(c5ccccc5)CC4)c(=O)n3C)CC2)[C@@H]1N` [Example 263, 2-((3S,4S)-4-amino-3-methyl-2-oxa-8-azaspiro[4.5]decan-8-yl)-3-methyl-5-(1-phenylcyclopropyl)pyrimidin-4(3H)-one]: the 50% inhibitory concentration (IC50) is more than 60 nM.
The same measure for `N[C@@H]1c2ccccc2CC12CCN(c1nc3[nH]nc(C4(c5ccccn5)CCC4)c3c(=O)[nH]1)CC2` [Example 93, (S)-6-(1-amino-1,3-dihydrospiro[indene-2,4′-piperidin]-1′-yl)-3-(1-(pyridin-2-yl)cyclobutyl)-1,5-dihydro-4H-pyrazolo[3,4-d]pyrimidin-4-one]: not above 20 nM.
The same measure for `CC1(C)NC=C(c2n[nH]c3nc(N4CCC5(CC4)Cc4ccccc4[C@H]5N)[nH]c(=O)c23)c2ccccc21` [Example 179, (S)-6-(1-amino-1,3-dihydrospiro[indene-2,4′-piperidin]-1′-yl)-3-(1,1-dimethyl-1,2-dihydroisoquinolin-4-yl)-1,5-dihydro-4H-pyrazolo[3,4-d]pyrimidin-4-one]: not above 20 nM; for `N[C@@H]1c2ccccc2CC12CCN(c1nc3[nH]nc(C4(c5ccc[s+]5[O-])CC4)c3c(=O)[nH]1)CC2` (stereo partly drawn) [Example 242, 6-((S)-1-amino-1,3-dihydrospiro[indene-2,4′-piperidin]-1′-yl)-3-(1-(1-oxidothiophen-2-yl)cyclopropyl)-1,5-dihydro-4H-pyrazolo[3,4-d]pyrimidin-4-one]: not above 20 nM.
In turn, `CC1(C)CC=C(c2n[nH]c3nc(N4CCC5(CC4)Cc4ccccc4C5N)[nH]c(=O)c23)c2cccnc21` (stereo not shown) [Example 127, 6-(1-amino-1,3-dihydrospiro[indene-2,4′-piperidin]-1′-yl)-3-(8,8-dimethyl-7,8-dihydroquinolin-5-yl)-1,5-dihydro-4H-pyrazolo[3,4-d]pyrimidin-4-one] yielded an IC50 not above 20 nM.
On to `C[C@@H]1OCC2(CCN(c3nc4[nH]nc(C5(c6cccc(-n7cccn7)c6)CC5)c4c(=O)[nH]3)CC2)[C@@H]1N` [Example 314, 3-(1-(3-(1H-pyrazol-1-yl)phenyl)cyclopropyl)-6-((3S,4S)-4-amino-3-methyl-2-oxa-8-azaspiro[4.5]decan-8-yl)-1,5-dihydro-4H-pyrazolo[3,4-d]pyrimidin-4-one], for which the concentration for half-maximal inhibition (IC50) was more than 60 nM.
Then `N[C@@H]1c2ccccc2CC12CCN(c1nc3[nH]nc(C4(c5cccc6c5COC6)CC4)c3c(=O)[nH]1)CC2` [Example 83, (S)-6-(1-amino-1,3-dihydrospiro[indene-2,4′-piperidin]-1′-yl)-3-(1-(1,3-dihydroisobenzofuran-4-yl)cyclopropyl)-1,5-dihydro-4H-pyrazolo[3,4-d]pyrimidin-4-one], with not above 20 nM; and `N[C@@H]1c2ccccc2CC12CCN(c1nc3[nH]nc(C4(c5ccsc5)CC4)c3c(=O)[nH]1)CC2` [Example 236, (S)-6-(1-amino-1,3-dihydrospiro[indene-2,4′-piperidin]-1′-yl)-3-(1-(thiophen-3-yl)cyclopropyl)-l,5-dihydro-4H-pyrazolo[3,4-d]pyrimidin-4-one], with not above 20 nM.
Then `C[C@@H]1OCC2(CCN(c3nc4[nH]nc(C5(c6ccc(O)cc6)CC5)c4c(=O)[nH]3)CC2)[C@@H]1N` [Example 311, 6-((3S,4S)-4-amino-3-methyl-2-oxa-8-azaspiro[4.5]decan-8-yl)-3-(1-(4-hydroxyphenyl)cyclopropyl)-1,5-dihydro-4H-pyrazolo[3,4-d]pyrimidin-4-one], with 20 to 60 nM; and `N[C@@H]1c2ccccc2CC12CCN(c1nc3[nH]nc(C4(c5ccnc(OC6CC6)c5)CC4)c3c(=O)[nH]1)CC2` [Example 30, (S)-6-(1-amino-1,3-dihydrospiro[indene-2,4′-piperidin]-1′-yl)-3-(1-(2-cyclopropoxypyridin-4-yl)cyclopropyl)-1,5-dihydro-4H-pyrazolo[3,4-d]pyrimidin-4-one], with not above 20 nM.
Then `CC1(C)Cc2nc(C(F)(F)F)ccc2C(c2n[nH]c3nc(N4CCC5(CC4)Cc4ccccc4[C@H]5N)[nH]c(=O)c23)=C1F` [Example 189, (S)-6-(1-amino-1,3-dihydrospiro[indene-2,4′-piperidin]-1′-yl)-3-(6-fluoro-7,7-dimethyl-2-(trifluoromethyl)-7,8-dihydroquinolin-5-yl)-1,5-dihydro-4H-pyrazolo[3,4-d]pyrimidin-4-one], with not above 20 nM.
As for `CC1(C)C=C(c2n[nH]c3nc(N4CCC5(CC4)Cc4ccccc4[C@H]5N)[nH]c(=O)c23)c2cnn(CC(F)(F)F)c2C1` [Example 151, (S)-6-(1-amino-1,3-dihydrospiro[indene-2,4′-piperidin]-1′-yl)-3-(6,6-dimethyl-l-(2,2,2-trifluoroethyl)-6,7-dihydro-1H-indazol-4-yl)-1,5-dihydro-4H-pyrazolo[3,4-d]pyrimidin-4-one], the IC50 was not above 20 nM.
